Read-outs that look alike come from different tables or passages of the source.
How the values were obtained:
[1] = test system: group I PAKs (PAK1-3) in EBC1 cells, MEK1 phosphorylation at S298; assay: Cellular PAK assay: MEK1 (S298) phosphorylation in EBC1 cells, HTRF; type: cell-based; conditions: Homo sapiens, EBC-1, 2 h treatment, Example 66
Method: Group I PAKs (PAK1-3) are activated upon binding to the Rho GTPases, Rac1 and Cdc42. […] The inhibition of group I PAKs in EBC1 cells is assessed by detecting changes in the level of MEK1 phosphorylation at S298 using homogenous time-resolved fluorescence (HTRF). […] Following inhibitor treatment, cells were lysed with 25 μL of 1× cellular kinase lysis buffer (Cisbio) containing 1× cellular kinase blocking reagent (Cisbio). Cellular lysis was carried out at 4° C. for 2 h with constant shaking before lysate (16 μL) was transferred to white 384-well ProxiPlates™ (Perkin Elmer).

[2] = molecular target: T1, human recombinant GST-PAK1-KD protein (Homo sapiens, UniProt Q13153); assay: GST-PAK1-KD (kinase domain) biochemical assay, microfluidic mobility shift
T1 construct: residues #249-545 of human PAK1, UniProtKP/Swiss Q13153; His6 (N); made in house; host or cells: Sf9 insect cells, pAcGP67 baculovirus expression vector

[3] = GST-PAK1-KD Inhibition Assay - Example 65, read-out: PAK1 inhibition Ki
[4] = Table I, PAK1 Ki class, read-out: Ki
[5] = Table II, PAK1 Ki class, read-out: Ki

T1 sequence (Q13153 249-545): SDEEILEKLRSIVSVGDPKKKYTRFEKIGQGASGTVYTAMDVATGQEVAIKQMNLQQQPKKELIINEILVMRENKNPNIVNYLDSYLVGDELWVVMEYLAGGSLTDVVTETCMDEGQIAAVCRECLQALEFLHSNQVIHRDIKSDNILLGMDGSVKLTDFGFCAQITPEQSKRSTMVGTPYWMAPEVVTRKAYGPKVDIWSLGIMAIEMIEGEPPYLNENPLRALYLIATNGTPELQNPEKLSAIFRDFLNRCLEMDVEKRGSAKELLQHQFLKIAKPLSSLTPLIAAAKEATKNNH

SMILES	IC50 [1] [nM]	Ki [2, 3] [nM]	Ki [2, 4] [nM]	Ki [2, 5] [nM]
Cc1n[nH]c2cc(Cl)cc(CNc3ncc(F)c(Nc4cc(C5CC5)[nH]n4)n3)c12 [II-24, N^2-((6-Chloro-3-methyl-1H-indazol-4-yl)methyl)-N^4-(5-cyclopropyl-1H-pyrazol-3-yl)-5-fluoropyrimidine-2,4-diamine]	339	41.3		< 50
CCOc1cc(Nc2ccnc(N(C)Cc3ccc4[nH]cnc4c3Cl)n2)n[nH]1 [II-33, N^2-((4-Chloro-1H-benzo[d]imidazol-5-yl)methyl)-N^4-(5-ethoxy-1H-pyrazol-3-yl)-N^2-methylpyrimidine-2,4-diamine]	648	97.9		50 to 250
CN(C)CCN(Cc1cc(F)cc2[nH]ncc12)c1nccc(Nc2cc([C@@H]3C[C@@H]3F)[nH]n2)n1 [II-73, N^2-(2-(dimethylamino)ethyl)-N^2-((6-fluoro-1H-indazol-4-yl)methyl)-N^4-(5-((1S,2S)-2-fluorocyclopropyl)-1H-pyrazol-3-yl)pyrimidine-2,4-diamine]	419	13		< 50
COCCc1cc(Nc2ccnc(N(C)Cc3ccc4[nH]cnc4c3Cl)n2)n[nH]1 [II-102, N^2-((4-chloro-1H-benzo[d]imidazol-5-yl)methyl)-N^4-(5-(2-methoxyethyl)-1H-pyrazol-3-yl)-N^2-methylpyrimidine-2,4-diamine]	1500	63.3		50 to 250
Clc1c(CNc2nccc(Nc3cc(C4CCCO4)[nH]n3)n2)ccc2[nH]cnc12 (stereo not drawn) [I-109, N^2-((4-chloro-1H-benzo[d]imidazol-5-yl)methyl)-N^4-(5-(tetrahydrofuran-2-yl)-1H-pyrazol-3-yl)pyrimidine-2,4-diamine]	786	27.5	< 50	
CN(Cc1ccc2nc[nH]c2c1Cl)c1nccc(Nc2cc(CCC#N)[nH]n2)n1 [II-45, 3-(3-(2-(((4-Chloro-3H-benzo[d]imidazol-5-yl)methyl)(methyl)amino)pyrimidin-4-ylamino)-1H-pyrazol-5-yl)propanenitrile]	1900	165		50 to 250
CN(Cc1ccc2[nH]cnc2c1Cl)c1nccc(Nc2cc(C3COC3)[nH]n2)n1 [II-2, N^2-[(4-Chloro-1H-benzimidazol-5-yl)methyl]-N^2-methyl-N4-[5-(oxetan-3-yl)-1H-pyrazol-3-yl]pyrimidine-2,4-diamine]	475	7.1		< 50

The next compounds have a lower IC50 [1] than those just listed; values first:

IC50 [1] [nM]	Ki [2, 3] [nM]	Ki [2, 4] [nM]	Ki [2, 5] [nM]	SMILES
257	6		< 50	Fc1cc(CN(CCN2CCCC2)c2nccc(Nc3cc(C4CC4)[nH]n3)n2)c2cn[nH]c2c1 [II-59, N^4-(5-cyclopropyl-1H-pyrazol-3-yl)-N^2-((6-fluoro-1H-indazol-4-yl)methyl)-N^2-(2-(pyrrolidin-1-yl)ethyl)pyrimidine-2,4-diamine]
212	13.5	< 50		Cc1cc(Nc2cc(C3CC3)[nH]n2)nc(N[C@@H](C)c2ccc3[nH]ccc3c2)n1 [I-7, (S)—N^2-(1-(1H-indol-5-yl)ethyl)-N^4-(5-cyclopropyl-1H-pyrazol-3-yl)-6-methylpyrimidine-2,4-diamine]
133	6.75	< 50		C[C@H](Nc1nccc(Nc2cc(C3CCC3)[nH]n2)n1)c1ccc2[nH]ccc2c1 [I-114, (S)—N^2-(1-(1H-indol-5-yl)ethyl)-N^4-(5-cyclobutyl-1H-pyrazol-3-yl)pyrimidine-2,4-diamine]
104	37	< 50		c1cc(CNc2nccc(Nc3cc(C4CC4)[nH]n3)n2)c2cn[nH]c2c1 [I-59, N^2-((1H-Indazol-4-yl)methyl)-N^4-(5-cyclopropyl-1H-pyrazol-3-yl)pyrimidine-2,4-diamine]
70.8	4.2		< 50	CC(CO)N(Cc1cc(F)cc2[nH]ncc12)c1nccc(Nc2cc(C3CC3)[nH]n2)n1 (stereo not drawn) [II-56, 2-((4-((5-cyclopropyl-1H-pyrazol-3-yl)amino)pyrimidin-2-yl)((6-fluoro-1H-indazol-4-yl)methyl)amino)propan-1-ol]
66.1	2.5		< 50	CCN(Cc1ccc2[nH]cnc2c1Cl)c1nccc(Nc2cc([C@@H]3C[C@@H]3F)[nH]n2)n1 [II-51, N^2-((4-chloro-1H-benzo[d]imidazol-5-yl)methyl)-N^2-ethyl-N^4-(5-((1S,2S)-2-fluorocyclopropyl)-1H-pyrazol-3-yl)pyrimidine-2,4-diamine]

Reference: patent publication US8637537B2, “Serine/threonine kinase inhibitors” (Genentech, Inc., priority 2011, dated 2014)
